Experimental data reported in BigSolDB 2.1.

OCCCCCCO
solubility (mole fraction)
Conditions	283.15 K	288.15 K	293.15 K	298.15 K	303.15 K
in DMAc	0.0205	0.0298	0.0469	0.0688	0.0939
in methanol	0.365	0.428	0.51	0.585	0.698
in n-butanol	0.316	0.389	0.479	0.577	0.689
